# According to US8138357B2, “Compounds and their salts specific to the PPAR receptors and the EGF receptors and their use in the medical field” (Giuliani International Limited, priority 2005, dated 2012):
# Entries after “also recorded” stand apart in the source; their conditions may differ.
# Experiments:
# PPARγ [1] = target: T1, PPARγ (Homo sapiens, UniProt P37231); assay: PPARγ activation, PPRE (2XCYP) luciferase reporter in transfected HT-29 STD cells (Example 8); assay type: cell-based; conditions: 30 mM, 24 hours, HT-29 STD transfected with 2XCYP
# T1 construct: HT-29 STD cells were transiently transfected using the Effectene™ transfection reagent; endogenous in cells; host or cells: HT-29 STD (human colon carcinoma)
# T1 sequence (P37231 1-505): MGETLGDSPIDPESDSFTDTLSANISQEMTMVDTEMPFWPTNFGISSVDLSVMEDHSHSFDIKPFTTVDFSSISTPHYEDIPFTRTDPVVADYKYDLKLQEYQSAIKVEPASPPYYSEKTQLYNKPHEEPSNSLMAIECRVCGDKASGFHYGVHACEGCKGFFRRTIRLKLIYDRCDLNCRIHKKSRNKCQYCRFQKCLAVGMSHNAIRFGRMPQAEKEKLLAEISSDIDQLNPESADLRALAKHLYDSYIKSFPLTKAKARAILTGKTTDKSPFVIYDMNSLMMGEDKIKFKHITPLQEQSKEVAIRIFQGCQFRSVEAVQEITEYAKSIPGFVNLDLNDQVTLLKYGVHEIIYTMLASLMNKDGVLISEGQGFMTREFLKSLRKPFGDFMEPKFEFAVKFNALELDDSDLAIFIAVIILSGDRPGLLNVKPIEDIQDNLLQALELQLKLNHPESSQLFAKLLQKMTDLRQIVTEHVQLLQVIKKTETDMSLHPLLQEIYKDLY
# Description: HT-29 STD cells were transiently transfected using the Effectene™ transfection reagent (Qiagen™) according to instructions from the manufacturer. To test PPARγ activation, we performed transfection with 500 ng of a minimal promoter construct containing two copies of PPRE obtained from the cytochrome p450 4A (2XCYP) (1). The renilla luciferase plasmid ([…]) was also transfected as an internal control for monitoring transfection efficiency and for normalizing the firefly luciferase activity. Transfected cells were left for 48 hours incubation at 37° C. […] The pH of the drug solutions was adjusted to 7.4 with NaOH. Total cell extracts were prepared using the Passive Lysis Buffer (Promega™, Madison, Wis.). Luciferase activity was assayed in 20 μl of the extract using the Promega™ Dual Luciferase assay system according to the manufacturer's protocol. Transfections were assayed in triplicate in at least three separate experiments. The luciferase activity was expressed as fold of the activity obtained in cells treated with the different molecules divided by luciferase activity from non-stimulated cells.
# PPARγ [2] = assay: PPARγ protein expression by western blot in HT-29 cells; assay type: cell-based, human; conditions: 30 mM, 24 hours, HT-29, relative to β-actin
# Description: The total proteins were obtained by cell homogenization in an extraction buffer consisting of PBS with 2% Triton™, Phenyl Methyl Sulphonyl Fluoride (PMSF) 100 mM and a classical protease inhibitor cocktail (2). The total proteins were then separated by polyacrylamide gel electrophoresis and electroblotted. Polyvinylidendifluoride (PVDF) membranes were incubated overnight with rabbit polyclonal primary antibody directed against PPARγ (dilution 1/500, TEBU, Le Perray en Yveline, France). β-actin was detected using a rabbit monoclonal primary antibody diluted at 1/10,000 (Sigma). Immunodetection with a secondary peroxidase-conjugated antibody (1/1000, Dako™, Trappes, France) and chemiluminescence was performed according to the manufacturer's protocol (ECL™, Amersham Pharmacia Biotech™, Orsay, France). Optical density values of PPARγ were given for each condition in proportion to the quantity of the internal control β-actin in the same sample (2).
# HT-29 STD cells [3] = assay: Cell proliferation by nuclear Ki-67 immunostaining; assay type: cell-based; conditions: Homo sapiens, 30 mM, 24 h, compared to untreated cells, read-out: inhibition of cell proliferation (Ki-67 staining)
# Description: After 24 h of culture, HT-29 STD cells were treated during 24 h with the new molecules 13, 14, 17, 26 and 31, at 30 mM. […] The pH of the drug solutions was adjusted to 7.4 with NaOH. Cells were fixed in PFA 4%, permeabilized in PBS containing 0.1% Triton X-100™ at 4° C. and then incubated with goat normal serum and blocking buffer (1% BSA in PBS) to minimize non-specific adsorption of the antibody. Cell proliferation was assessed by a nuclear Ki-67 staining using mouse monoclonal primary antibody directed against Ki-67 (dilution 1:50 overnight; ZYMED™ Clinisciences™, Montrouge, France). […] Nuclei were stained with Hoescht 33342 solution (0.125 mg/mL) (Sigma-Aldrich™) and visualized under a fluorescence microscope (Leica™, Bensheim, Germany). Negative controls consisted of staining with a non-specific mouse serum instead of the specific antibody. Counts of at least 500 cells/sample were systematically performed blindly in one experiment. The results were expressed as the mean±SEM of the number of stained cells.
# HT-29 STD cells [4] = assay: Detection of apoptosis by TUNEL assay; assay type: cell-based, human; conditions: 30 mM, 24 h
# Description: After 24 h of culture, HT-29 STD cells were treated during 24 h with the new molecules 13, 14, 17, 26 and 31, at a concentration of 30 mM. […] The pH of the drug solutions was adjusted to 7.4 with NaOH. Cells undergoing apoptosis were identified by enzymatic labelling of DNA strands using a terminal transferase dUTP nick end labelling assay (TUNEL assay, Roche Diagnostics™, Meylan, France). Counts of at least 500 cells/sample were systematically performed blindly in one experiment. The results were expressed as the mean±SEM of the number of stained cells.
# DLD-1 cells = assay: Cell growth by colorimetric BrdU incorporation assay, DLD-1; assay type: cell-based; conditions: Homo sapiens, 48 hours
# Description: (§1) HT-29 and DLD-1 cells were cultured in McCoy and RPMI1640 media respectively, supplemented with 10% fetal bovine serum (FBS), 1% penicillin/streptomycin (P/S) and 50 μg/ml gentamycin. HT-115 were cultured in DMEM medium supplemented with 15% FBS and 1% P/S. Cells were maintained in a humidified incubator at 37° C., in the presence of 5% CO2.
# (§2) For cell growth assays, single-cell suspensions were plated at 2×10^3 cells/well (4×10^3 cells/well for HT115) in 96-well culture dishes in medium containing 0.5% FBS and allowed to adhere. The non-adherent cells were then removed, and fresh medium containing 0.5% FBS was added into each well. Cells were cultured in the presence or absence of the specified substances. Each substance was dissolved as a 25 mM stock solution in culture medium containing 0.5% FBS, and the pH of each stock solution was adjusted to 7.4, if necessary, with NaOH. Substances were used at a final concentration ranging from 0.5 to 10 mM. Cell proliferation was determined by measuring the incorporation of 5-bromo-2′-deoxyuridine (BrdU) into DNA using a commercially available cell proliferation kit (Roche Diagnostics™, Monza, Italy). BrdU was added to the cell cultures during the last 6 hours of incubation, and the level of BrdU-positive cells was assessed after 48 h culture by enzyme-linked immunosorbent assay (ELISA).
# (§3) Optical density (OD) was determined at 450 nm using an ELISA reader. Experiments were performed in triplicate and the results are reported as the mean±standard deviation (SD).
# HT-29, HT-115 and DLD-1 = assay: Colon cancer cell growth by BrdU assay, three human colon carcinoma cell lines; assay type: cell-based; conditions: final concentration 10 mM, 48 h
# Description: For this purpose, three human colon carcinoma cell lines (i.e. HT-29, HT-115 and DLD-1) were used. These cell types were selected on the basis of the cyclooxigenase-2 (COX-2) expression. Indeed, HT-115 cells express a biologically active COX-2, HT-29 cells express a non-functional COX-2 isoform, and DLD-1 are COX-2-deficient cells.
# as §1, §2, §3
compound,measurement,setting,value
"CC(C)Oc1ccc(N)cc1C(=O)O [compound 31, 5-amino-2-isopropoxybenzoic acid]","reporter gene activity, factor of increase relative to untreated cells",PPARγ [1],two-fold; also recorded: about twice
same,induction of PPARγ protein levels quantified by western blot,PPARγ [2],2 fold
same,inhibition at 30000 µM,HT-29 STD cells [3],67 to 75%
same,"apoptosis, epithelial cells identified by TUNEL",HT-29 STD cells [4],80%
same,inhibition at 500 µM,DLD-1 cells; 0.5 mM,0%
same,inhibition at 1000 µM,DLD-1 cells; 1 mM,0%
same,inhibition at 2500 µM,DLD-1 cells; 2.5 mM,0%
same,inhibition at 5000 µM,DLD-1 cells; 5 mM,8.8%
same,inhibition at 10000 µM,DLD-1 cells; 10 mM,31.7%
same,cell growth inhibition,"HT-29, HT-115 and DLD-1",significantly inhibited cell growth
